The results in this text go back to patent publication US7091247B2, “Biphenyl compound” (Takeda Pharmaceutical Company Limited, priority 2000, dated 2006).

Test [1] deals with T1, human GPR14 (Homo sapiens, UniProt Q9UKP6).
T1 construct: expressed in transfected cells; host or cells: CHO dhfr- cells stably transfected with pcDNA3.1-hGPR14 (CHO/hGPR14)
T1 sequence (Q9UKP6 1-389): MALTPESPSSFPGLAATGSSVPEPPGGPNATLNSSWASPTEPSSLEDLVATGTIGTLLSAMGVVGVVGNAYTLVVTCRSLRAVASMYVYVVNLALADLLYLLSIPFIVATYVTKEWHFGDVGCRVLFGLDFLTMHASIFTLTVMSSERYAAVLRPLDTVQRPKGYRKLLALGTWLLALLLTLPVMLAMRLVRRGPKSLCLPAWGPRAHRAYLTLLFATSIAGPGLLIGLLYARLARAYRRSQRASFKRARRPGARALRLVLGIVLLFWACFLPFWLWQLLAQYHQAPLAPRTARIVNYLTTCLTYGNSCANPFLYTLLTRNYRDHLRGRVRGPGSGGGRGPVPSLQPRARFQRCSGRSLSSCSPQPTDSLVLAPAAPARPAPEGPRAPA
The experiment in a line: Inhibition of binding of [125I]-labeled human urotensin II to human GPR14-expressing CHO cell membrane fraction. Particulars: 25° C., 3 hours, read-out: Inhibitory concentration (concentration showing 50% inhibition of human GPR14 binding activity). The method, then:
To 1×10^8 CHO/GPR14 cells were added 10 ml of homogenate buffer (10 mM NaHCO3, 5 mM EDTA, 0.5 mM PMSF, 1 μg/ml pepstatin, 4 μg/ml E64, 20 μg/ml leupeptin), and disrupted using Polytron (12,000 rpm, 1 minute). Cell debris solution was centrifuged at 1,000 g for 15 minutes to obtain a supernatant. The supernatant was then […] (in Beckman type 30 rotor, 30,000 rpm, 1 hour), and the resultant precipitant was collected as human GPR14-expressing CHO cell fraction.
Isotope-labeled human urotensin II to be used in experiments for testing inhibition of binding was prepared as described below. 5 μg of human urotensin II (available from Peptide Institute, Inc.) was dissolved in 25 μl of 0.4 M sodium acetate (pH 5.6). […]
Human GPR14-expressing CHO cell fraction was diluted in a membrane diluting buffer (20 mM phosphate buffer (pH 7.3), 150 mM NaCl, 5 mM MgCl2, 0.1% BSA, 0.05% CHAPS, 0.5 mM PMSF, 0.1 μg/ml Pepstatin, 20 μg/ml Leupeptin, 4 μg/ml E-64) to prepare a solution of cell membrane fraction (protein concentration: 3 μg/ml) for assay. […] Next, the filter was washed three times with membrane diluting buffer (0.2 ml), added with 20 μl of Microscinti 20 (Packard), and determined for radioactivity in Topcount (Packard). Specific-binding is calculated by subtracting non-specific binding from the total binding. […]

Test [2] concerns the target T2, GPR14-expressing CHO cells (Homo sapiens, UniProt Q9UKP6).
T2 construct: expressed in transfected cells; host or cells: CHO dhfr- cells stably transfected with pcDNA3.1-hGPR14 (CHO/hGPR14)
T2 sequence (Q9UKP6 1-389): T1 sequence (Q9UKP6 1-389)
The test is described as follows: Change in intracellular calcium concentration in human GPR14-expressing CHO cells (FLIPR, urotensin II-induced). The format is cell-based. Particulars: antagonist activity assay, 10 nM urotensin II added. The method, then:
GPR14-expressing CHO cells were inoculated on a 96-well plate at 1×10^4 cell/well, cultured for 48 hours, and then washed with 0.1 ml of HBSS containing 20 mM HEPES(pH 7.4), 1% FCS and 1% penicillin-streptomycin (hereinafter referred to as “wash buffer”). Next, 100 μl of another wash buffer containing 4 μM Fluo3, 0.04% pluronic acid and 2.5 mM probenicid (hereinafter referred to as “reaction buffer”) was added thereto for reaction at 37° C. for 1 hour. The reaction buffer was then removed and the plate was washed three times with 0.2 ml of wash buffer. Then, 90 μl of wash buffer and 10 μl of a solution of test compound in dimethylsulfoxide diluted 10 times (by volume) in membrane diluting buffer were added for agonist activity assay, while, for antagonist activity assay, furthermore 10 μl of 10 nM urotensin II was additionally added to determine change in intracellular calcium concentration in FLIPR (Japan Molecular Device).
Background: Calcium flux is commonly read through the fluorescence of an indicator in the cells.

Test [3] deals with T3, human somatostatin receptor protein subtype 5 (SSTR5) (Homo sapiens, UniProt P35346).
T3 construct: expressed in transfected cells; host or cells: CHO (dhfr-) cells transfected with pA-1-11-SSTR5; clone SSTR5-32-4
T3 sequence (P35346 whole entry): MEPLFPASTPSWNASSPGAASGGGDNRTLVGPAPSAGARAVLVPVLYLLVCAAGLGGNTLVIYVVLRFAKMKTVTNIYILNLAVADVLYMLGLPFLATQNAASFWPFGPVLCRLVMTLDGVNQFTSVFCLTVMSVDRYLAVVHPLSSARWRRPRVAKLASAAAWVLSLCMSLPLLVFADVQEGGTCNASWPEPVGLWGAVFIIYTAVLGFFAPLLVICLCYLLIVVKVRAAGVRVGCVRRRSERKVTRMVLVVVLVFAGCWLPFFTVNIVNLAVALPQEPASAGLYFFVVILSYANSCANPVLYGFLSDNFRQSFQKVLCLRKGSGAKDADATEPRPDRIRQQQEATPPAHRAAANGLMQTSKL
The experiment in a line: Inhibition of binding of [125I]-somatostatin to SSTR5-expressing CHO cell membrane fraction. Particulars: 25° C., 60 minutes, Hill plots, read-out: IC50 (concentration at which 50% binding of [125I]-somatostatin was inhibited). As for the experimental part:
(3) —(CH2)h1—X^1—(CH2)h2—X^2—(CH2)h3— (h1, h2 and h3 are the same or different integers 0 to 10 provided that the sum of h1, h2 and h3 is 0 to 10, and X^1 and X^2 independently represent NH, O, S, SO or SO2 provided that, when h2 is 0, at least one of X^1 and X^2 is preferably NH); etc., and these divalent groups wherein some bonds have been converted into unsaturated bonds. […]
The SSTR5-expressing CHO cell membrane fraction prepared in Example 5 was diluted with the assay buffer to prepare a solution at a concentration of 3 •g/ml and pipetted into tubes (173 •l/tube). […] After filtration, the radioactivity of [^125I]-somatostatin remaining on the glass filer was measured with a • counter.
The degree of inhibition of binding (%) by each test substance was determined according to the following equation: The degree of inhibition of binding (%)=(radioactivity when the compound was added−radioactivity when DMSO solution was added)/(radioactivity when somatostatin was added−radioactivity when DMSO solution was added)×100. […]

Structures can show the parent of a compound that is named as a salt.

`NS(=O)(=O)c1ccc(CCN(Cc2cccc(-c3cccc(C(=O)NCCN4CCCC4)c3)c2)C(=O)CCCc2ccccc2)cc1` [Example 4, 3′-{({2-[4-(Aminosulfonyl)phenyl]ethyl}[4-phenylbutanoyl]amino)methyl}-N-[2-(1-pyrrolidinyl)ethyl][1,1′-biphenyl]-3-carboxamide hydrochloride]: in test [1], the IC50 was found to be 10 nM. Regarding `NS(=O)(=O)c1ccc(CCN(Cc2cccc(-c3cccc(C(=O)NCCN4CCCC4)c3)c2)C(=O)COCc2ccccc2)cc1` [Example 6, 3′-{({2-[4-(Aminosulfonyl)phenyl]ethyl}[(benzyloxy)acetyl]amino)methyl}-N-[2-(1-pyrrolidinyl)ethyl][1,1′-biphenyl]-3-carboxamide hydrochloride], the IC50 in test [1] is 13 nM. In the case of `NCCNC(=O)c1cccc(-c2cccc(CN(CCc3ccc(S(N)(=O)=O)cc3)C(=O)/C=C/c3ccccc3)c2)c1.O=C(O)C(F)(F)F` [Example 71, N-(2-Aminoethyl)-3′-({[4-(aminosulfonyl)phenethyl][(E)-3-phenyl-2-propenoyl]amino}methyl)[1,1′-biphenyl]-3-carboxamide trifluoroacetate], the “Inhibition of urotensin II-induced increase in intracellular calcium concentration” value in test [2] was “inhibited urotensin II-induced increase in intracellular calcium concentration”. Consider `N=C(N)NCc1cccc(C(=O)N(Cc2cccc(-c3ccccc3C(=O)NCCN)c2)Cc2cccc3ccccc23)c1` [Example 325, N-(2-Aminoethyl)-3′-{[[3-({[amino(imino)methyl]amino}methyl)benzoyl](1-naphthylmethyl)amino]methyl}-1,1′-biphenyl-2-carboxamide trifluoroacetate], for which the IC50 in test [3] came out at 6 nM. On to `NCCNC(=O)c1ccccc1-c1cccc(CN(Cc2cccc3ccccc23)C(=O)c2ccc(S(N)(=O)=O)cc2)c1` [Example 328, N-(2-Aminoethyl)-3′-{[[4-(aminosulfonyl)benzoyl](1-naphthylmethyl)amino]methyl}-1,1′-biphenyl-2-carboxamide trifluoroacetate], for which the IC50 in test [3] is 3 nM.
